# Experiments:
# [1] = system: U2932; test: Antiproliferative activity against human U2932 cells assessed as inhibition of cell viability measured after 72 hrs by MTT assay; type: functional, cell-based; settings: U2932, 72 h
# [2] = system: TMD8; test: Antitumor activity against human TMD8 cells xenografted in mouse model assessed as tumor inhibition rate at 2.5 mg/kg, ip QD relative to control; type: functional; parameters: scale not given: the % may be the effect or the level left
# [3] = system: DOHH-2; test: Antiproliferative activity against human DOHH-2 cells assessed as inhibition of cell viability measured after 72 hrs by MTT assay; type: functional, cell-based; settings: DOHH-2, 72 h
# [4] = Antitumor activity against human TMD8 cells harbouring TP53 mutant xenografted in mouse model assessed as tumor inhibition rate at 2.5 mg/kg, ip QD relative to control; type: functional; parameters: scale not given: the % may be the effect or the level left
# [5] = Upregulation of BAX mRNA level in human DOHH-2 cells assessed as fold change at 300 nM measured after 6 days by PCR analysis; type: functional; settings: time 6 day
# [6] = Antitumor activity against human TMD8 cells harbouring TP53 mutant xenografted in mouse model assessed as body weight change at 2.5 mg/kg, ip QD relative to control; type: functional
# [7] = Upregulation of FAS mRNA level in human DOHH-2 cells assessed as fold change at 300 nM measured after 6 days by PCR analysis; type: functional; settings: time 6 day
# [8] = system: TMD8; test: Antiproliferative activity against human TMD8 cells assessed as inhibition of cell viability measured after 72 hrs by MTT assay; type: functional, cell-based; settings: TMD8, 72 h
# [9] = Antiproliferative activity against human NK-YS cells assessed as inhibition of cell viability measured after 72 hrs by MTT assay; type: functional, cell-based
# [10] = system: Jurkat; test: Antiproliferative activity against human Jurkat cells assessed as inhibition of cell viability measured after 72 hrs by MTT assay; type: functional, cell-based
# [11] = Antitumor activity against human TMD8 cells harbouring […] xenografted in mouse model assessed as tumor inhibition rate at 2.5 mg/kg, ip QD relative to control; type: functional; parameters: scale not given: the % may be the effect or the level left
# [12] = Antitumor activity against human TMD8 cells harbouring […] xenografted in mouse model assessed as body weight change at 2.5 mg/kg, ip QD relative to control; type: functional
structure (smiles),measurement,setting,value
Nc1ncn([C@@H]2O[C@H](CO)[C@@H](O)[C@H]2O)c(=O)n1 [AZACITIDINE],IC50,[1],1830 nM
same,Activity,[2],53.02%
same,IC50,[3],340 nM
same,Activity,[4],43.6%
same,fold change (FC),[5],1.86
same,Activity,[6],-5.9%
same,fold change (FC),[7],1.8
same,IC50,[8],2840 nM
same,IC50,[9],3280 nM
same,IC50,[10],1080 nM
same,Activity,[11],52.1%
same,Activity,[12],-5.9%

# Source: ChEMBL document CHEMBL6153174, “Design and Synthesis of Novel Deazapurine DNMT 1 Inhibitors with In Vivo Efficacy in DLBCL” (J Med Chem, 2025)
